Assay results taken from the SangsterLogP compilation.

Row | SMILES | logP
1 | CC(C)NC(=O)c1cc2ccccc2oc1=O | 2.13
2 | CNC(=O)Nc1ccccn1 | 0.8
3 | NC(=O)C(C(N)=O)c1ccccc1 | -0.07
4 | NC(=O)C(c1ccccc1)c1ccccc1 | 2.11
5 | O=C(CCl)Nc1sc2c(c1C(=O)c1ccccc1)CCCC2 | 4.58
6 | CCC(=O)NC(=O)Nc1ccccc1 | 2.19
7 | CC(C)NC(=O)Nc1ccccc1 | 1.84
8 | O=C(Nc1ccccc1)Nc1ccccn1 | 3.1

Now from value to compound:

Row | logP | SMILES
9 | 2.97 | CNc1ccccc1C(=O)OC
10 | 0.13 | CC(=O)Nc1ccccc1N
11 | 2.89 | COc1ccc(C(=O)Nc2nc3ccccc3[nH]2)cc1
12 | 2.58 | CCc1ccccc1NC
13 | 2.68 | CC(C)NC(=O)c1ccc2ccccc2c1
14 | 2.92 | c1ccc(CNc2nc3ccccc3[nH]2)cc1
15 | 1.65 | CC(C)Nc1ccccc1N
16 | 1.1 | OCCNc1nc2ccccc2[nH]1
